In patent US20060069132A1, “Azolecarboxamide herbicides” (priority 2004, published 2006):

Columns and labels:
common purslane = assay: Test E pre-/postemergence herbicide test; format: in vivo, Portulaca oleracea
Text: (§1) Seeds of plant species selected from bipinnate beggarticks (Bidens bipinnata L.), hairy beggarticks (Bidens radiata Thuill.), bermudagrass (Cynodon dactylon (L.) Pers.), Surinam grass (Urochloa decumbens (Staph) R. D. Webster, previously named Brachiaria decumbens Stapf), large crabgrass (Digitaria sanguinalis (L.) Scop.), green foxtail (Setaria viridis (L.) P. Beauv.), goosegrass (Eleusine indica (L.) Gaertn.), johnsongrass (Sorghum halepense (L.) Pers.), kochia (Kochia scoparia (L.) Schrad.), pitted morningglory (Ipomoea lacunosa L.), purple nutsedge (Cyperus rotundus L.), common ragweed (Ambrosia elatior L.), mustard (Brassica nigra (L.) W. D. J. Koch), guineagrass (Panicum maximum Jacq.), dallisgrass (Paspalum dilatatum Poir.), barnyardgrass (Echinochloa crus-galli (L). P. Beauv.), southern sandbur (Cenchrus echinatus L.), common sowthistle (Sonchus oleraceous L.), prickly sida (Sida spinosa L.), Italian ryegrass (Lolium multiflorum Lam.), common purslane (Portulaca oleracea L.), broadleaf signalgrass (Brachiaria platyphylla (Griseb.) Nash), common groundsel (Senecio vulgaris L.), common chickweed (Stellaria media (L.) Vill/Cyr.), tropical spiderwort (Commelina benghalensis L.), annual bluegrass (Poa annua L.), downy bromegrass (Bromus tectorum L.), itchgrass (Rottboellia cochinchinensis (L.) L.f.), quackgrass (Elytrigia repens (L.) Nevski), Canada horseweed (Erigeron Canadensis L.), field bindweed (Convolvulus arvensis L.), spotted spurge (Euphorbia maculata L.), common mallow (Malva sylvestris (=s silvestris) L.), and Russian thistle (Salsola kali L. ssp. Ruthenica (Iljin) Soo) were planted and treated preemergence with test chemicals formulated in a non-phytotoxic solvent mixture which included a surfactant.
(§2) At the same time, plants selected from these weed species were treated with postemergence applications of some of the test chemicals formulated in the same manner. Plants ranged in height from 2 to 18 cm (1- to 4-leaf stage) for postemergence treatments. Treated plants and controls were maintained in a greenhouse for 12 to 14 days, after which time all species were compared to controls and visually evaluated. Plant response ratings, summarized in Table E, are based on a scale of 0 to 100 where 0 is no effect and 100 is complete control. A dash (-) response means no test result.

common ragweed = assay: Test E pre-/postemergence herbicide test; format: in vivo, Ambrosia elatior
Text: as §1, §2

field bindweed = assay: Test E pre-/postemergence herbicide test; format: in vivo, Convolvulus arvensis
Text: as §1, §2

mustard = assay: Test E pre-/postemergence herbicide test; format: in vivo, Brassica nigra
Text: as §1, §2

common sowthistle = assay: Test E pre-/postemergence herbicide test; format: in vivo, Sonchus oleraceous
Text: as §1, §2

barnyardgrass = assay: Test E pre-/postemergence herbicide test; format: in vivo, Echinochloa crus-galli
Text: as §1, §2

green foxtail = assay: Test E pre-/postemergence herbicide test; format: in vivo, Setaria viridis
Text: as §1, §2

bermudagrass = assay: Test E pre-/postemergence herbicide test; format: in vivo, Cynodon dactylon
Text: as §1, §2

quackgrass = assay: Test E pre-/postemergence herbicide test; format: in vivo, Elytrigia repens
Text: as §1, §2

common chickweed = assay: Test E pre-/postemergence herbicide test; format: in vivo, Stellaria media
Text: as §1, §2

wheat = assay: Test C postemergence herbicide test; format: in vivo, Triticum aestivum
Outline: (§3)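 Greenhouse test with a 12–14 day hold after application and visual comparison with controls. Emerged plants were 1- to 4-leaf stage (2–18 cm) when sprayed postemergence, and the paddy barnyardgrass was at 2 leaves under flooded conditions. 100 = complete control.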

prickly sida = assay: Test E pre-/postemergence herbicide test; format: in vivo, Sida spinosa; settings: Preemergence
Text: as §1, §2

blackgrass = assay: Test C postemergence herbicide test; format: in vivo, Alopecurus myosuroides
Outline: as §3

[1] = Postemergence, 500 g ai/ha, scale 0 to 100
[2] = Postemergence, 250 g ai/ha, scale 0 to 100
[3] = Preemergence, 62 g ai/ha, scale 0 to 100
[4] = Preemergence, 125 g ai/ha, scale 0 to 100
[5] = Preemergence, 250 g ai/ha, scale 0 (no effect) to 100 (complete control)
[6] = Preemergence, 500 g ai/ha, scale 0 (no effect) to 100 (complete control)
[7] = postemergence, 125 g ai/ha, scale 0 to 100
[8] = postemergence, 62 g ai/ha, scale 0 to 100
[9] = Postemergence, 250 g ai/ha, scale 0 to 100, 0 no effect, 100 complete control

Q: Which results are given for `CCn1nc(C(C)(C)C)cc1C(=O)Nc1cc(C(=O)N(C)C)ccn1` [Compound 156, 2-[[[3-(1,1-dimethylethyl)-1-ethyl-1H-pyrazol-5-yl]carbonyl]amino]-N,N-dimethyl-4-pyridinecarboxamide]?
A: Plant response rating, Purslane (common purslane; [1]): 100; Plant response rating, Purslane (common purslane; [2]): 100; Plant response rating, Purslane (common purslane; [3]): 100; Plant response rating, Purslane (common purslane; [4]): 100; Plant response rating, Purslane (common purslane; [5]): 100; Plant response rating, Purslane (common purslane; [6]): 100; Plant response rating, Purslane (common purslane; [7]): 100; Plant response rating, Purslane (common purslane; [8]): 75; Plant response rating, Ragweed (common ragweed; [1]): 98; Plant response rating, Ragweed (common ragweed; [2]): 90; Plant response rating, Ragweed (common ragweed; [3]): 50; Plant response rating, Ragweed (common ragweed; [4]): 90; Plant response rating, Ragweed (common ragweed; [5]): 95; Plant response rating, Ragweed (common ragweed; [6]): 100; Plant response rating, Ragweed (common ragweed; [7]): 90; Plant response rating, Ragweed (common ragweed; [8]): 80; Plant response rating, Bindweed, Field (field bindweed; [1]): 100; Plant response rating, Bindweed, Field (field bindweed; [2]): 80; Plant response rating, Bindweed, Field (field bindweed; [3]): 60; Plant response rating, Bindweed, Field (field bindweed; [4]): 90; Plant response rating, Bindweed, Field (field bindweed; [5]): 100; Plant response rating, Bindweed, Field (field bindweed; [6]): 100; Plant response rating, Bindweed, Field (field bindweed; [7]): 65; Plant response rating, Bindweed, Field (field bindweed; [8]): 65; Plant response rating, Black Mustard (mustard; [1]): 100; Plant response rating, Black Mustard (mustard; [2]): 100; Plant response rating, Black Mustard (mustard; [3]): 100; Plant response rating, Black Mustard (mustard; [4]): 100; Plant response rating, Black Mustard (mustard; [5]): 100; Plant response rating, Black Mustard (mustard; [6]): 100; Plant response rating, Black Mustard (mustard; [7]): 100; Plant response rating, Black Mustard (mustard; [8]): 98; Plant response rating, Sowthistle (common sowthistle; [1]): 100; Plant response rating, Sowthistle (common sowthistle; [2]): 100; Plant response rating, Sowthistle (common sowthistle; [3]): 60; Plant response rating, Sowthistle (common sowthistle; [4]): 100; Plant response rating, Sowthistle (common sowthistle; [5]): 100; Plant response rating, Sowthistle (common sowthistle; [6]): 100; Plant response rating, Sowthistle (common sowthistle; [7]): 90; Plant response rating, Sowthistle (common sowthistle; [8]): 90; Plant response rating, Barnyardgrass (barnyardgrass; [1]): 98; Plant response rating, Barnyardgrass (barnyardgrass; [2]): 98; Plant response rating, Barnyardgrass (barnyardgrass; [3]): 100; Plant response rating, Barnyardgrass (barnyardgrass; [4]): 100; Plant response rating, Barnyardgrass (barnyardgrass; [5]): 100; Plant response rating, Barnyardgrass (barnyardgrass; [6]): 100; Plant response rating, Barnyardgrass (barnyardgrass; [7]): 95; Plant response rating, Barnyardgrass (barnyardgrass; [8]): 90; Plant response rating, Foxtail, Green (green foxtail; [1]): 100; Plant response rating, Foxtail, Green (green foxtail; [2]): 100; Plant response rating, Foxtail, Green (green foxtail; [3]): 100; Plant response rating, Foxtail, Green (green foxtail; [4]): 100; Plant response rating, Foxtail, Green (green foxtail; [5]): 100; Plant response rating, Foxtail, Green (green foxtail; [6]): 100; Plant response rating, Foxtail, Green (green foxtail; [7]): 95; Plant response rating, Foxtail, Green (green foxtail; [8]): 75; Plant response rating, Bermudagrass (bermudagrass; [1]): 98; Plant response rating, Bermudagrass (bermudagrass; [2]): 95; Plant response rating, Bermudagrass (bermudagrass; [3]): 95; Plant response rating, Bermudagrass (bermudagrass; [4]): 100; Plant response rating, Bermudagrass (bermudagrass; [5]): 100; Plant response rating, Bermudagrass (bermudagrass; [6]): 100; Plant response rating, Bermudagrass (bermudagrass; [7]): 95; Plant response rating, Bermudagrass (bermudagrass; [8]): 65; Plant response rating, Quackgrass (quackgrass; [1]): 98; Plant response rating, Quackgrass (quackgrass; [2]): 95; Plant response rating, Quackgrass (quackgrass; [3]): 50; Plant response rating, Quackgrass (quackgrass; [4]): 90; Plant response rating, Quackgrass (quackgrass; [5]): 95; Plant response rating, Quackgrass (quackgrass; [6]): 100; Plant response rating, Quackgrass (quackgrass; [7]): 95; Plant response rating, Quackgrass (quackgrass; [8]): 75; Plant response rating, Chickweed (common chickweed; [1]): 100; Plant response rating, Chickweed (common chickweed; [2]): 100; Plant response rating, Chickweed (common chickweed; [3]): 80; Plant response rating, Chickweed (common chickweed; [4]): 100; Plant response rating, Chickweed (common chickweed; [5]): 100; Plant response rating, Chickweed (common chickweed; [6]): 100; Plant response rating, Chickweed (common chickweed; [7]): 100; Plant response rating, Chickweed (common chickweed; [8]): 100

Q: Which “Plant response rating, Ragweed” value (common ragweed; [3]) does the source give for `CCN1N=C(C(C)(C)C)CC1C(=O)Nc1cc(C(=O)N(C)C)ccc1F` (stereo not drawn) [Compound 268, N-[5-[(dimethylamino)carbonyl]-2-fluorophenyl]-3-(1,1-dimethylethyl)-1-ethyl-4,5-dihydro-1H-pyrazole-5-carboxamide] here?
A: The value was 50.

Q: What about the “Plant response rating, Ragweed” value (common ragweed; [4]) of the same compound?
A: The value was 60.

Q: What about the “Plant response rating, Ragweed” value (common ragweed; [5]) of the same compound?
A: The value was 100.

Q: And the “Plant response rating, Ragweed” value (common ragweed; [6])?
A: The value was 100.

Q: What about the “Plant response rating, Bindweed, Field” value (field bindweed; [3]) of the same compound?
A: Its value is 0.

Q: And the “Plant response rating, Bindweed, Field” value (field bindweed; [4])?
A: The value was 20.

Q: And the “Plant response rating, Bindweed, Field” value (field bindweed; [5])?
A: Its value is 40.

Q: And the “Plant response rating, Bindweed, Field” value (field bindweed; [6])?
A: The value was 70.

Q: And the “Plant response rating, Wheat” value (wheat; [9])?
A: Its value is 25.

Q: And the “Plant response rating, Wheat” value (wheat; [7])?
A: The value was 0.

Q: And the “Plant response rating, Wheat” value (wheat; [8])?
A: The value was 0.

Q: And the “Plant response rating, Black Mustard” value (mustard; [3])?
A: Its value is 90.

Q: What about the “Plant response rating, Black Mustard” value (mustard; [4]) of the same compound?
A: Its value is 100.

Q: And the “Plant response rating, Black Mustard” value (mustard; [5])?
A: The value was 100.

Q: What about the “Plant response rating, Black Mustard” value (mustard; [6]) of the same compound?
A: The value was 100.

Q: What about the “Plant response rating, Prickly Sida” value (prickly sida; 62 g ai/ha, scale 0 to 100) of the same compound?
A: Its value is 60.

Q: And the “Plant response rating, Prickly Sida” value (prickly sida; 125 g ai/ha, scale 0 to 100)?
A: Its value is 80.

Q: What about the “Plant response rating, Prickly Sida” value (prickly sida; 250 g ai/ha, scale 0 (no effect) to 100 (complete control)) of the same compound?
A: Its value is 100.

Q: And the “Plant response rating, Prickly Sida” value (prickly sida; 500 g ai/ha, scale 0 (no effect) to 100 (complete control))?
A: Its value is 100.

Q: And the “Plant response rating, Sowthistle” value (common sowthistle; [3])?
A: The value was 80.

Q: What about the “Plant response rating, Sowthistle” value (common sowthistle; [4]) of the same compound?
A: Its value is 100.

Q: And the “Plant response rating, Sowthistle” value (common sowthistle; [5])?
A: The value was 100.

Q: And the “Plant response rating, Sowthistle” value (common sowthistle; [6])?
A: Its value is 100.

Q: What about the “Plant response rating, Barnyardgrass” value (barnyardgrass; [3]) of the same compound?
A: The value was 60.

Q: What about the “Plant response rating, Barnyardgrass” value (barnyardgrass; [4]) of the same compound?
A: Its value is 85.

Q: And the “Plant response rating, Barnyardgrass” value (barnyardgrass; [5])?
A: The value was 100.

Q: And the “Plant response rating, Barnyardgrass” value (barnyardgrass; [6])?
A: Its value is 100.

Q: And the “Plant response rating, Foxtail, Green” value (green foxtail; [3])?
A: The value was 70.

Q: And the “Plant response rating, Foxtail, Green” value (green foxtail; [4])?
A: Its value is 95.

Q: And the “Plant response rating, Foxtail, Green” value (green foxtail; [5])?
A: Its value is 100.

Q: What about the “Plant response rating, Foxtail, Green” value (green foxtail; [6]) of the same compound?
A: Its value is 100.

Q: And the “Plant response rating, Bermudagrass” value (bermudagrass; [3])?
A: Its value is 60.

Q: And the “Plant response rating, Bermudagrass” value (bermudagrass; [4])?
A: Its value is 90.

Q: What about the “Plant response rating, Bermudagrass” value (bermudagrass; [5]) of the same compound?
A: Its value is 95.

Q: What about the “Plant response rating, Bermudagrass” value (bermudagrass; [6]) of the same compound?
A: Its value is 100.

Q: What about the “Plant response rating, Blackgrass” value (blackgrass; [9]) of the same compound?
A: The value was 60.

Q: And the “Plant response rating, Blackgrass” value (blackgrass; [7])?
A: Its value is 45.

Q: And the “Plant response rating, Blackgrass” value (blackgrass; postemergence, 31 g ai/ha, scale 0 to 100)?
A: Its value is 0.

Q: What about the “Plant response rating, Blackgrass” value (blackgrass; [8]) of the same compound?
A: The value was 30.

Q: What about the “Plant response rating, Quackgrass” value (quackgrass; [3]) of the same compound?
A: Its value is 40.

Q: And the “Plant response rating, Quackgrass” value (quackgrass; [4])?
A: The value was 85.

Q: And the “Plant response rating, Quackgrass” value (quackgrass; [5])?
A: Its value is 95.

Q: And the “Plant response rating, Quackgrass” value (quackgrass; [6])?
A: The value was 95.
